Measurements published in patent US9199988B2, “Dihydroquinazolinone analogues” (Boehringer Ingelheim International GmbH, priority 2013, dated 2015).
pIC50: −log10 of the molar value.

Target: T1, first (BRD4-BD1) or the second (BRD4-BD2) bromodomain of BRD4 (Homo sapiens, UniProt O60885)
T1 construct: fused on or other part: GST tag (N-terminal fusion, used for capture on the glutathione acceptor beads)
Assay: BRD4-H4 tetraacetylated peptide inhibition AlphaScreen
Type: binding
Conditions: inhibition of interaction of GST-BRD4 bromodomain with biotinylated tetraacetylated histone H4 peptide; table does not say whether BD1 or BD2
Experimental: BRD4-H4 tetraacetylated peptide inhibition AlphaScreen
Compounds are diluted in serial dilution 1:5 in assay buffer from 10 mM stock in DMSO (100 μM start concentration) in white OptiPlate-384 (PerkinElmer). A mix consisting of 15 nM GST-BRD4-BD1 protein (aa 44-168) or 150 nM GST-BRD4-BD2 (aa 333-460) and 15 nM biotinylated Acetyl-Histone H4 (LysS, 8, 12, 16) peptide is prepared in assay buffer (50 mM HEPES pH=7.4; 25 mM NaCl; 0.05% Tween 20; 0.1% bovine serum albumin (BSA); 10 mM dithiothreitol (DTT)). 6 μl of the mix is added to the compound dilutions. Subsequently, 6 μl of premixed AlphaLISA Glutathione Acceptor Beads and AlphaScreen Streptavidin Donor Beads from PerkinElmer (in assay buffer at a concentration of 10 μg/ml each) are added and the samples are incubated for 30 min at RT in the dark (shaking 300 rpm). Afterwards, the signal is measured in a PerkinElmer Envision HTS Multilabel Reader using the AlphaScreen protocol from PerkinElmer. Each plate contains negative controls where biotinylated Acetyl-Histone H4 peptide and GST-BRD4-BD1 or GST-BRD4-BD2 are left out and replaced by assay buffer. Negative control values are entered as low basis value when using the software GraphPad Prism for calculations. Furthermore, a positive control (probe molecule JQ1+ with protein/peptide mix) is pipetted. Determination of IC50 values are carried out using GraphPad Prism 3.03 software (or updates thereof).

`Cc1noc(C)c1-c1ccc2c(c1)C(c1ccccc1)N(CC1CCOCC1)C(=O)N2` (stereo not shown) [Example 5, 6-(3,5-Dimethylisoxazol-4-yl)-4-phenyl-3-(tetrahydropyran-4-ylmethyl)-1,4-dihydroquinazolin-2-one] and `Cc1noc(C)c1-c1ccc2c(c1)C(c1ccccc1)N(CC1CCN(C)CC1)C(=O)N2` (stereo not shown) [Example 4, 6-(3,5-Dimethyl-isoxazol-4-yl)-3-(1-methyl-piperidin-4-ylmethyl)-4-phenyl-3,4-dihydro-1H-quinazolin-2-one] are within 0.2 log units of each other in pIC50: 7.42 for the first, 7.51 for the second.

`Cc1noc(C)c1-c1ccc2c(c1)C(C)(c1ccccc1)N(C)C(=O)N2` (stereo not shown) [Example 19, 6-(3,5-Dimethyl-isoxazol-4-yl)-3,4-dimethyl-4-phenyl-3,4-dihydro-1H-quinazolin-2-one] and `Cc1noc(C)c1-c1ccc2c(c1)C(c1ccccc1)N(C)C(=O)N2` (stereo not shown) [Example 1, 6-(3,5-Dimethyl-isoxazol-4-yl)-3-methyl-4-phenyl-3,4-dihydro-1H-quinazolin-2-one] are within 0.2 log units of each other in pIC50: 7.51 for the first, 7.36 for the second.

Compared with `Cc1noc(C)c1-c1cc2c(cn1)NC(=O)N(C)[C@H]2c1ccccc1` [Example 16, (S) 6-(3,5-Dimethyl-isoxazol-4-yl)-3-methyl-4-phenyl-3,4-dihydro-1H-pyrido[3,4-d]pyrimidin-2-one], `Cc1noc(C)c1-c1cc2c(cn1)NC(=O)N(C)C2c1ccccc1` (stereo not shown) [Example 15, 6-(3,5-Dimethyl-isoxazol-4-yl)-3-methyl-4-phenyl-3,4-dihydro-1H-pyrido[3,4-d]pyrimidin-2-one] is 0.70 log units lower in pIC50: 6.78 for the first, 6.08 for the second.

First: COc1noc(C)c1-c1ccc2c(c1)C(c1ccccc1)N(C)C(=O)N2 (stereo not shown) [Example 20, 6-(3-Methoxy-5-methyl-isoxazol-4-yl)-3-methyl-4-phenyl-3,4-dihydro-1H-quinazolin-2-one]
Second: Cc1noc(C)c1-c1ccc2c(c1)[C@H](c1ccccc1)N(C)C(=O)N2 [Example 2, (S) 6-(3,5-Dimethyl-isoxazol-4-yl)-3-methyl-4-phenyl-3,4-dihydro-1H-quinazolin-2-one]
The pIC50 of the first is 0.90 log units lower: 6.67 for the first, 7.57 for the second.

`Cc1noc(C)c1-c1ccc2c(c1)C(c1ccccc1)N(Cc1ccccc1)C(=O)N2` (stereo not shown) [Example 6, 3-Benzyl-6-(3,5-dimethylisoxazol-4-yl)-4-phenyl-1,4-dihydroquinazolin-2-one] and `COc1ccc(CN2C(=O)Oc3ccc(-c4c(C)noc4C)cc3C2c2ccccc2)cc1` (stereo not shown) [Example 12, 6-(3,5-Dimethyl-isoxazol-4-yl)-3-(4-methoxy-benzyl)-4-phenyl-3,4-dihydro-benzo[e][1,3]oxazin-2-one] are within 0.2 log units of each other in pIC50: 6.65 for the first, 6.62 for the second.

`Cc1noc(C)c1-c1ccc2c(c1)C(c1ccccc1)N(C)C(=O)N2C` (stereo not shown) [Example 3, 6-(3,5-Dimethyl-isoxazol-4-yl)-1,3-dimethyl-4-phenyl-3,4-dihydro-1H-quinazolin-2-one] and `Cc1noc(C)c1-c1ccc2c(c1)C(c1ccccc1)N(C)C(=O)O2` (stereo not shown) [Example 8, 6-(3,5-Dimethyl-isoxazol-4-yl)-3-methyl-4-phenyl-3,4-dihydro-benzo[e][1,3]oxazin-2-one] are within 0.2 log units of each other in pIC50: 7.18 for the first, 7.12 for the second.

First: Cc1noc(C)c1-c1ccc2c(n1)C(c1ccccc1)N(C)C(=O)N2 (stereo not shown) [Example 17, 6-(3,5-Dimethyl-isoxazol-4-yl)-3-methyl-4-phenyl-3,4-dihydro-1H-pyrido[3,2-d]pyrimidin-2-one]
Second: COc1c(-c2c(C)noc2C)ccc2c1C(c1ccccc1)N(C)C(=O)N2 (stereo not shown) [Example 21, 6-(3,5-Dimethyl-isoxazol-4-yl)-5-methoxy-3-methyl-4-phenyl-3,4-dihydro-1H-quinazolin-2-one]
The pIC50 of the first is 0.52 log units higher: 6.60 for the first, 6.08 for the second.

Going from `Cc1noc(C)c1-c1ccc2c(c1)C(c1ccccc1)OC(=O)N2` (stereo not shown) [Example 10, 6-(3,5-Dimethyl-isoxazol-4-yl)-4-phenyl-1,4-dihydro-benzo[d][1,3]oxazin-2-one] to `Cc1noc(C)c1-c1ccc2c(c1)[C@H](c1ccccc1)N(C)C(=O)O2` [Example 9, (S) 6-(3,5-Dimethyl-isoxazol-4-yl)-3-methyl-4-phenyl-3,4-dihydro-benzo[e][1,3]oxazin-2-one], the pIC50 rises from 6.37 to 7.17 (0.80 log units).

First: Cc1noc(C)c1-c1cnc2c(c1)C(c1ccccc1)N(C)C(=O)N2 (stereo not shown) [Example 18, 6-(3,5-Dimethyl-isoxazol-4-yl)-3-methyl-4-phenyl-3,4-dihydro-1H-pyrido[2,3-]pyrimidin-2-one]
Second: Cc1noc(C)c1-c1ccc2c(c1)C(c1ccccn1)N(C)C(=O)N2 (stereo not shown) [Example 13, 6-(3,5-Dimethyl-isoxazol-4-yl)-3-methyl-4-pyridin-2-yl-3,4-dihydro-1H-quinazolin-2-one]
The pIC50 of the first is 0.20 log units higher: 7.12 for the first, 6.92 for the second. The first is the more potent here.

`Cc1noc(C)c1-c1ccc2c(c1)C(c1ccc(Cl)cc1)N(C)C(=O)N2` (stereo not shown) [Example 7, 4-(4-Chloro-phenyl)-6-(3,5-dimethyl-isoxazol-4-yl)-3-methyl-3,4-dihydro-1H-quinazolin-2-one] showed a pIC50 of 6.98.
